Laboratory results taken from patent publication US4882339A, “4-Amino-substituted 1,2-dihydroxynaphthalene derivatives useful in inhibiting 5-lipoxygenase activity in mammals” (Ciba-Geigy Corporation, priority 1987, dated 1989).
Where two headings read alike, the source gives them in different places.

Legend:
5-lipoxygenase [1] = target: T1, 5-lipoxygenase (Cavia porcellus, UniProt A0A286X958); assay: Inhibition of the synthesis of 5-HETE and LTB4 in A-23187-stimulated guinea pig polymorphonuclear leukocytes; format: cell-based; details: for IC50: in vitro
T1 construct: A-23187-stimulated guinea pig polymorphonuclear leukocytes; endogenous in cells; host or cells: guinea pig polymorphonuclear leukocytes
T1 sequence (A0A286X958 1-674): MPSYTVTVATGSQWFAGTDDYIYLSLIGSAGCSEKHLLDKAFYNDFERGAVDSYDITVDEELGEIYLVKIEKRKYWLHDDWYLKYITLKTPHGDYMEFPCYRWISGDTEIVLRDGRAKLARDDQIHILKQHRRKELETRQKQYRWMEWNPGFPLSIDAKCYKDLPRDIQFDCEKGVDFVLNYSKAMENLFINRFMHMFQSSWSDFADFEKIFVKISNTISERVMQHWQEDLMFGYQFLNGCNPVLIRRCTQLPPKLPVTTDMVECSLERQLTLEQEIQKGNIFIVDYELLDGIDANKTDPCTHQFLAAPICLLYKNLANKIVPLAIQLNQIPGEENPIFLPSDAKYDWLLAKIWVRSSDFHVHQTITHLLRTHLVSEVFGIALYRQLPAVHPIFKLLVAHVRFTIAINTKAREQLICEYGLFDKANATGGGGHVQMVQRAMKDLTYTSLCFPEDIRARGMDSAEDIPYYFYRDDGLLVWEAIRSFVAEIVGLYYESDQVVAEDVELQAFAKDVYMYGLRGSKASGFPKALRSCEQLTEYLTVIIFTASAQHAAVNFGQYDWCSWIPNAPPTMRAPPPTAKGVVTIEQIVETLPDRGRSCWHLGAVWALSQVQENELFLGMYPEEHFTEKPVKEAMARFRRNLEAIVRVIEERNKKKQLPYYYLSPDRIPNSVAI
Protocol: 5-Lipoxygenase inhibition is determined e.g. by measuring the percent inhibition of the synthesis of 5-HETE [(5S)-5-hydroxy-6,8,11,14-eicosa-tetraenoic acid] and leukotriene B4 (LTB4, 5,12-dihydroxy-6,8,10,14-eicosatetraenoic acid) in A-23187-stimulated guinea pig polymorphonuclear leukocytes, essentially according to radiometric thin-layer chromatogrpahic assays described by Walker and Dawson (J. Pharm. Pharmacol. 31: 778, 1979) and Jakschik and Lee (Nature 287: 51, 1980) used to measure the formation of 5-HETE and LTB4 -like products from ^14 C-arachidonic acid. IC50 values are determined graphically as the concentration of test compound at which the synthesis of 5-HETE and LTB4 -like products is reduced to 50% of their respective control values.

[2] = system: rat pleurisy model of inflammation; assay: Carrageenin-induced pleurisy model of inflammation in the rat; format: in vivo; details: 30 mg/kg p.o. b.i.d. for two days; 48 hours after carrageenin
5-lipoxygenase [3] = assay: Ex vivo inhibition of 5-lipoxygenase (A-23187-stimulated LTB4 formation in whole blood), rat; details: about 10-100 mg/kg p.o.
Protocol: (§1) Furthermore the inhibition of 5-lipoxygenase in vivo is determined after oral or i.v. administration to rats or dogs by measuring ex vivo in whole blood the inhibition of A-23187-stimulated LTB4 formation as compared to non-treated control animals.

5-lipoxygenase [4] = assay: Ex vivo inhibition of 5-lipoxygenase (A-23187-stimulated LTB4 formation in whole blood), dog
Protocol: as §1

[5] = In vivo metabolite identification after administration of 4-(N-methylcyclohexylamino)-1,2-diacetoxynaphthalene

Compound	IC50 (5-lipoxygenase [1]; read-out: IC50 for LTB4 formation) [nM]	inhibition of the formation of 5-HETE and leukotriene B4 (5-lipoxygenase [1]; result in words)	cell count of monocytes [2]	cell count of polymorphonuclear leukocytes [2]	exudate volume [2]	inhibition of 5-lipoxygenase activity ex vivo (5-lipoxygenase [3])	inhibition of 5-lipoxygenase activity ex vivo (5-lipoxygenase [4]; 1 mg/kg i.v.)	inhibition of 5-lipoxygenase activity ex vivo (5-lipoxygenase [4]; 100 mg/kg p.o.)	IC50 (5-lipoxygenase [1]; read-out: IC50 for inhibition of the formation of LTB4) [nM]	in vivo metabolite [5]
CC(=O)Oc1cc(N(C)C2CCCCC2)c2ccccc2c1OC(C)=O [4-(N-methylcyclohexylamino)-1,2-diacetoxynaphthalene]	~1000	inhibits the formation of 5-HETE [(5S)-5-hydroxy-6,8,11,14-eicosa-tetraenoic acid] and leukotriene B4	lowers the cell count of polymorphonuclear leukocytes and of monocytes	lowers the cell count of polymorphonuclear leukocytes	causes inhibition of exudate volume	inhibits 5-lipoxygenase activity	inhibits 5-lipoxygenase activity	inhibits 5-lipoxygenase activity		
CN(C1=CC(=O)C(=O)c2ccccc21)C1CCCCC1 [4-(N-methylcyclohexylamino)-1,2-naphthoquinone]									~500	identified as an in vivo metabolite of 4-(N-methylcyclohexylamino)-1,2-diacetoxynaphthalene
